Laboratory results from ChEMBL document CHEMBL1130993, “1,2-disubstituted cyclohexane derived tripeptide aldehydes as novel selective thrombin inhibitors” (Bioorg Med Chem Lett, 1998).

What was measured:
Prothrombin [1] = target: T1, Prothrombin (Homo sapiens, UniProt P00734); assay: Compound was evaluated for percent inhibition of thrombin using the synthetic substrate chromozym TH at 100 uM
Prothrombin [2] = target: T1, Prothrombin; assay: Compound was evaluated for the inhibition of thrombin using the synthetic substrate chromozym TH
[3] = Compound was evaluated for IC50 ratio between human plasmin and thrombin
[4] = Compound was evaluated for IC50 ratio between human t-PA and thrombin

SMILES | inhibition (Prothrombin [1]) [%] | IC50 (Prothrombin [2]) [µM] | Selectivity [3] | Selectivity [4]
CN(CCc1ccccc1)C(=O)[C@@H]1CCCC[C@H]1C(=O)N[C@@H](C=O)CCCN=C(N)N | 14 | – | – | –
CN(CCc1ccccc1)C(=O)[C@@H]1CCCC[C@@H]1C(=O)N[C@@H](C=O)CCCN=C(N)N | 100 | 12 | 67 | 308
CNC(Cc1ccccc1)C(=O)N[C@@H]1CCCC[C@@H]1C(=O)N[C@@H](C=O)CCCN=C(N)N (stereo partly drawn) | 1 | – | – | –
CNC(Cc1ccccc1)C(=O)N[C@@H]1CCCC[C@H]1C(=O)N[C@@H](C=O)CCCN=C(N)N (stereo partly drawn) | 100 | 4 | 38 | 1000
CN(CCc1ccccc1)C(=O)[C@H]1CCCC[C@@H]1C(=O)N[C@@H](C=O)CCCN=C(N)N | 15 | – | – | –
CN[C@H](Cc1ccccc1)C(=O)N1CCC[C@H]1C(=O)N[C@H](C=O)CCCN=C(N)N [EFEGATRAN] | – | 0.046 | – | –
CNC(Cc1ccccc1)C(=O)N[C@H]1CCCC[C@@H]1C(=O)N[C@@H](C=O)CCCN=C(N)N (stereo partly drawn) | 39 | – | – | –
CN(Cc1ccccc1)C(=O)C1CCCCC1C(=O)N[C@@H](C=O)CCCN=C(N)N (stereo partly drawn) | 36 | – | – | –
CN(CCc1ccccc1)C(=O)C1CCCCC1C(=O)N[C@@H](C=O)CCCN=C(N)N (stereo partly drawn) | 100 | 84 | – | –
CN(Cc1ccccc1)C(=O)[C@@H]1CCCC[C@H]1C(=O)N[C@@H](C=O)CCCN=C(N)N | 8 | – | – | –
CN(Cc1ccccc1)C(=O)[C@H]1CCCC[C@@H]1C(=O)N[C@@H](C=O)CCCN=C(N)N | 27 | – | – | –
CNC(Cc1ccc2ccccc2c1)C(=O)N[C@H]1CCCC[C@H]1C(=O)N[C@@H](C=O)CCCN=C(N)N (stereo partly drawn) | – | 0.022 | 4540 | > 5000
CN[C@H](Cc1ccccc1)C(=O)N1CCC[C@H]1C(=O)N[C@H](C=O)CCCNC(=N)N | – | – | 413 | –
CNC(Cc1ccccc1)C(=O)N[C@H]1CCCC[C@H]1C(=O)N[C@@H](C=O)CCCN=C(N)N (stereo partly drawn) | 6 | – | – | –
